Assay results published in paper PMC7175153, “Testing the Pharmacokinetic Interactions of 24 Colonic Flavonoid Metabolites with Human Serum Albumin and Cytochrome P450 Enzymes” (Biomolecules, 2020).
Read-outs that look alike come from different tables or passages of the source. Values belong to the compound of their own block, whether it stands above or below them.

Tests used:
CYP2C19 [1] = target: T1, CYP2C19 (Homo sapiens, UniProt P33261); assay: CYP2C19-catalyzed S-mephenytoin hydroxylation (CypExpress 2C19 kit); type: in vitro ADME; conditions: CypExpress 2C19 kit (recombinant CYP2C19), probe S-mephenytoin, metabolite 20 μM, S-mephenytoin 5 μM
T1 construct: purchased Sigma-Aldrich
Excerpt: Effects of microbial metabolites on CYP2C19 enzyme were examined based on their impact on CYP2C19-catalyzed 4-hydroxymephenytoin formation, employing the previously reported method without modifications.
(§1) S-mephenytoin and 4-hydroxymephenytoin (CYP2C19 assay) as well as testosterone and 6β-hydroxytestosterone (CYP3A4 assay) were quantified by HPLC-UV employing the previously described methods without modifications.

[2] = design: method as in PMID 25168218; conditions: rat plasma, after Decalepis arayalpathra tuber extract; cited from earlier work
[3] = target: T2, human serum albumin (HSA) (Homo sapiens, UniProt P02768); assay: HSA-ligand interaction by fluorescence spectroscopy (quenching, Stern-Volmer and Hyperquad fitting); type: binding; conditions: for Kd: decimal log ±SEM of K in L/mol, Hyperquad non-linear fitting, PBS pH 7.4; for Effect on HSA fluorescence signal at 340 nm / LogKSV (Stern-Volmer quenching constant): HSA 2 μM; for Effect on HSA fluorescence signal at 340 nm: metabolite 0-8 μM, λex 295 nm; for LogKSV (Stern-Volmer quenching constant): decimal log ±SEM of KSV in L/mol, PBS pH 7.4, λex 295 nm, λem 340 nm
T2 construct: purchased Sigma-Aldrich
Description: Albumin-ligand interactions were investigated employing a Hitachi F-4500 fluorimeter (Tokyo, Japan), measurements were performed in phosphate-buffered saline (PBS, pH 7.4), in the presence of air at room temperature. Absorption spectra of the flavonoid metabolites were also recorded in PBS, applying a HALO DB-20 UV-Vis spectrophotometer (Dynamica, London, UK). Because the inner filter effect can decrease the fluorescence emission signal of albumin, fluorescence spectra were corrected using the following equation [29, 30]:Icor = Iobs × e^(Aex^+ Aem^)/2(1) where Icor means the corrected and Iobs denotes the observed emission intensities at the wavelengths used, while Aex and Aem are the absorbance values of flavonoid metabolites at the excitation and emission wavelengths applied, respectively.
HSA-ligand interactions were evaluated using fluorescence quenching studies or the intrinsic fluoresce of the metabolite (if it strongly interfered with the emission signal of albumin). In quenching studies, the emission spectrum of HSA (2 μM) was recorded in the presence of increasing concentrations of microbial metabolites (0, 2, 3, 4, 5, 6, and 8 μM), using a 295 nm excitation wavelength. Data were evaluated based on linear and non-linear fitting, employing the Stern-Volmer equation (Equation (2)) and the Hyperquad2006 program package (Protonic Software; Leeds, UK), respectively. The Stern-Volmer equation was described as I0/I = 1 + KSV × [Q](2) where I0 and I denote the fluorescence emission intensities (λex = 295 nm, λem = 340 nm) of HSA in the absence and presence of colonic metabolites, respectively. Furthermore, KSV (unit: L/mol) and [Q] (unit: mol/L) are the Stern-Volmer quenching constant and the concentration of the quencher, respectively.
The fluorescence emission spectrum of 2H4MBA (2 μM) was recorded with HSA (0, 0.5, 1, 2, 3, 4 and 5 μM), using 295 nm excitation wavelength (the excitation maximum of 2H4MBA). The binding constants (K; unit: L/mol) of albumin-ligand complexes were determined by non-linear fitting using the Hyperquad2006 program, as has been reported. During this evaluation, absorbance values and fluorescence signals of both HSA and 2H4MBA were taken into account.

HSA Site II (naproxen) = target: T3, HSA Site II (naproxen) (Homo sapiens, UniProt P02768); assay: Displacement of Site II marker naproxen from HSA by ultrafiltration; type: binding; conditions: naproxen 1 μM, HSA 1.5 μM, metabolite 20 μM
T3 construct: purchased Sigma-Aldrich
Excerpt: (§2) Then the concentrations of site markers in the filtrates were quantified by HPLC (see in 2.5).

HSA = conditions: cited from earlier work
bovine serum albumin = conditions: cited from earlier work
[4] = cited from earlier work
CYP3A4 [5] = conditions: cited from earlier work
CYP2C9 [6] = conditions: cited from earlier work
CYP2C19 [7] = tested on: CYP2C19; design: method as in PMID 24254844; conditions: cited from earlier work
CYP3A4 [8] = target: T4, CYP3A4 (Homo sapiens, UniProt P08684); assay: CYP3A4-catalyzed testosterone hydroxylation (CypExpress 3A4 kit); type: in vitro ADME; conditions: CypExpress 3A4 kit (recombinant CYP3A4), probe testosterone, metabolite 20 μM, testosterone 5 μM, read-out: Inhibition of CYP3A4 (decrease in metabolite formation)
T4 construct: purchased Sigma-Aldrich
Description: Inhibitory action of flavonoid metabolites on CYP3A4 enzyme was tested based on their effects on CYP3A4-catalyzed testosterone hydroxylation, using the previously described method without modifications.
as §1

CYP2C9 [9] = target: CYP2C9 (Homo sapiens, UniProt P11712); assay: CYP2C9-catalyzed diclofenac hydroxylation (CypExpress 2C9 kit)
Description: The inhibitory effects of colonic flavonoid metabolites were examined in vitro, applying CypExpress^TM Cytochrome P450 human kits.
Inhibition of CYP2C9 enzyme was examined based on CYP2C9-catalyzed 4′-hydroxydiclofenac formation in the presence of microbial metabolites, using the previously reported method with some modifications. […] The incubations were started with the addition of the enzyme. After 120 min incubation at 700 rpm and 30 °C in a thermomixer (Eppendorf, Hamburg, Germany), the reaction was stopped with the addition of 100 μL of ice-cold methanol. After centrifugation (10 min, 14,000 g, room temperature), the concentrations of diclofenac and 4′-hydroxydiclofenac were quantified with HPLC (see in 2.5).
The metabolite formation (% of control) was depicted vs. the concentrations of inhibitors in a decimal logarithmic scale, then IC50 values were determined employing the GraphPad Prism 8 software (San Diego, CA, USA).
Diclofenac and 4′-hydroxydiclofenac (CYP2C9 assay) were quantified by HPLC-UV as it was reported previously. […] The separation was carried out using a guard column (Phenomenex Security Guard C8, 4.0 × 3.0 mm) linked to an analytical column (Agilent Eclipse C8, 150 × 4.6 mm, 5 μm) at room temperature. […] Diclofenac and 4′-hydroxydiclofenac were detected at 275 nm.

HSA Site I (warfarin) = target: T5, HSA Site I (warfarin) (Homo sapiens, UniProt P02768); assay: Displacement of Site I marker warfarin from HSA by ultrafiltration; type: binding; conditions: warfarin 1 μM, HSA 5 μM, metabolite 20 μM
T5 construct: purchased Sigma-Aldrich
Excerpt: as §2

[10] = read-out: LogK (binding constant of albumin-ligand complex) (converted)

T2 sequence (P02768 25-609): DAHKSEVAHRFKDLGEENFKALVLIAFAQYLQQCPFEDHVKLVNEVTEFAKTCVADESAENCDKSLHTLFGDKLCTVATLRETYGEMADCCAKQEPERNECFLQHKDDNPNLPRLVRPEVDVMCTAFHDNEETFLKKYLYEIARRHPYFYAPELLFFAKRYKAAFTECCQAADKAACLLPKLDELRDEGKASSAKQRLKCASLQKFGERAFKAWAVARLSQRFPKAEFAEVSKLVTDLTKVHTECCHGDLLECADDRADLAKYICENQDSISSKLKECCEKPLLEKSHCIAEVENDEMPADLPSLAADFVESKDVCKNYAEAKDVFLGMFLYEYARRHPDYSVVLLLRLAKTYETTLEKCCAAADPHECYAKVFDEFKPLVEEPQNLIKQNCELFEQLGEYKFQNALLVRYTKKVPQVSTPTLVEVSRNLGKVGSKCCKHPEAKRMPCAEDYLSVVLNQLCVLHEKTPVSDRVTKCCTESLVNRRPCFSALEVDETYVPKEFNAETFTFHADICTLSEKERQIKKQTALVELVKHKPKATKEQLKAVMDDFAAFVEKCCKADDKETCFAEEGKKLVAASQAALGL
T4 sequence (P08684 whole entry): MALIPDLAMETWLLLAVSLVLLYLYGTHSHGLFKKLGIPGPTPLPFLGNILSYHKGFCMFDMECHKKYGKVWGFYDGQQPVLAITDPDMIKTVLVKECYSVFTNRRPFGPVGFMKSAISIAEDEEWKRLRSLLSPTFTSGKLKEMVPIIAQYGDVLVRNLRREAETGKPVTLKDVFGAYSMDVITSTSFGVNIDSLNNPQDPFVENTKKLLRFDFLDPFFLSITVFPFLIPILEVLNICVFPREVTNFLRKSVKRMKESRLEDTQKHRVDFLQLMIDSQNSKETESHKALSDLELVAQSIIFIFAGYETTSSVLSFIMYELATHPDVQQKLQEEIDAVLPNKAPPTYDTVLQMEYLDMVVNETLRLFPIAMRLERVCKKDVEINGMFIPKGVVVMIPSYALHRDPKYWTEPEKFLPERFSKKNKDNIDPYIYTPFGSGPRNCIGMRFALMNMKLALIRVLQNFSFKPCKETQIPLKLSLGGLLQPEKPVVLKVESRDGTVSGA
T1 sequence (P33261 whole entry): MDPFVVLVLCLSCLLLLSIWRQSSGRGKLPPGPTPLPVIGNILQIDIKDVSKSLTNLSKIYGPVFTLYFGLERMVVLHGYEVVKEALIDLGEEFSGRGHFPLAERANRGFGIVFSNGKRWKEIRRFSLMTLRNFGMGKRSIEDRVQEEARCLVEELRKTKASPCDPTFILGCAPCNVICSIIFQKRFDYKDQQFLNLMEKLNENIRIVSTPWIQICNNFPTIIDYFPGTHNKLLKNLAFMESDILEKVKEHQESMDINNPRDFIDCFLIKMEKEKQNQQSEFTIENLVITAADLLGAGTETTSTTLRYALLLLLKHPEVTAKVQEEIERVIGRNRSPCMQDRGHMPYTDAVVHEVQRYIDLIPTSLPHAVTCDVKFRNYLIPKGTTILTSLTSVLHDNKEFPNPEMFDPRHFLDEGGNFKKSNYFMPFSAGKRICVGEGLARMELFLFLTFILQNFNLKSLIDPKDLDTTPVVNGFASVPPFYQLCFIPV
T5 sequence (P02768 25-609): as the sequence (P02768 25-609) above
CYP2C9 (Homo sapiens, UniProt P11712), sequence (P11712 whole entry): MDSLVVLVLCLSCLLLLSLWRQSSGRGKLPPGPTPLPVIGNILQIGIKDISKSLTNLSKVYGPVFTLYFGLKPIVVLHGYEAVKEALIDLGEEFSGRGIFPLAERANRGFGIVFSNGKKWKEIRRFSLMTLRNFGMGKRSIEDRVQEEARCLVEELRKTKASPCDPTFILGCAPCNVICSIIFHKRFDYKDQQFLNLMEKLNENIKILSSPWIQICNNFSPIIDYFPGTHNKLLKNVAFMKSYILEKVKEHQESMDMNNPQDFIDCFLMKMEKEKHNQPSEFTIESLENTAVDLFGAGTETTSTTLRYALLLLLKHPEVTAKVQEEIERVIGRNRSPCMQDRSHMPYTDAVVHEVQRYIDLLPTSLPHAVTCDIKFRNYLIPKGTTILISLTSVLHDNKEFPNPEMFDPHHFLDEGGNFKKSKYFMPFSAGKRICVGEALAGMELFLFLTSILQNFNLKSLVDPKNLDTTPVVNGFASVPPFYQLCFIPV
T3 sequence (P02768 25-609): as the sequence (P02768 25-609) above

inhibition at 20 μM (CYP2C19 [1]): < 30%
Kd [3, 10]: 7.24 µM
Structure (SMILES): COc1ccc(C(=O)O)c(O)c1 [2H4MBA, 2-hydroxy-4-methoxybenzoic acid]
Cmax [2]: 7.7 µM
Concentration of naproxen in the filtrate (HSA Site II (naproxen)): statistically significant (p < 0.05) but weak elevation
logK of 2H4MBA-HSA complex (HSA; quenching study): 3.2

Structure (SMILES): O=C(O)/C=C/c1cccc(O)c1 [3CA, 3-coumaric acid]
logK of 3CA-bovine serum albumin complex (bovine serum albumin): 4.1
Concentration in the circulation [4]: low nanomolar concentrations
Effect on HSA fluorescence signal at 340 nm [3]: significant decrease
Kd [3, 10]: 72.4 µM
LogKSV (Stern-Volmer quenching constant) [3]: 4.13 ± 0.02

Structure (SMILES): COc1cc(CC(=O)O)ccc1O [3M4HPAA, 3-methoxy-4-hydroxyphenylacetic acid]
logK toward bovine serum albumin (bovine serum albumin): 3.8

Structure (SMILES): O=C(O)/C=C/c1ccc(O)cc1 [4-coumaric acid]
Effect on CYP3A4 enzyme (CYP3A4 [5]): did not influence

Structure (SMILES): COc1cc(C(=O)O)ccc1O [4-hydroxy-3-methoxy-benzoic acid]
Cmax ([4]; healthy human volunteers, orally administered): 5.7 µM

Structure (SMILES): O=C(O)c1ccc(O)cc1 [4HBA, 4-hydroxybenzoic acid]
Inhibition of CYP2C9 (CYP2C9 [6]): did not inhibit
Effect on CYP3A4 enzyme (CYP3A4 [5]): did not influence
Inhibition of CYP2C19 (CYP2C19 [7]): did not inhibit
logK of complex with HSA (HSA): no interaction

inhibition at 20 μM (CYP3A4 [8]): < 30%
Effect on HSA fluorescence signal at 340 nm [3]: significant decrease
Kd [3, 10]: 27.5 µM
LogKSV (Stern-Volmer quenching constant) [3]: 4.39 ± 0.06
Structure (SMILES): CC(=O)c1ccc(O)cc1O [24DHAP, 2,4-dihydroxyacetophenone]

Structure (SMILES): O=C(O)c1ccc(O)cc1O [24DHBA, 2,4-dihydroxybenzoic acid]
logK of complex with HSA (HSA): 3.2

Structure (SMILES): O=C(O)c1ccc(O)c(O)c1 [34DHBA, 3,4-dihydroxybenzoic acid]
inhibition at 20 μM (CYP2C19 [1]): < 30%
logK of complex with HSA (HSA): 3.1

Structure (SMILES): O=C(O)CCc1ccc(O)cc1 [34HPPA, 3-(4-hydroxyphenyl)propionic acid]
Inhibition of CYP2C9 (CYP2C9 [6]): did not inhibit
Effect on CYP3A4 enzyme (CYP3A4 [5]): did not influence
Inhibition of CYP2C19 (CYP2C19 [7]): did not inhibit

IC50 (CYP2C9 [9]): 6.6 µM
α (IC50 of the inhibitor divided by the IC50 of the positive control) (CYP2C9 [9]; human, 120 min, pH 7.5): 5.00
inhibition at 20 μM (CYP2C19 [1]): < 30%
inhibition at 20 μM (CYP3A4 [8]): < 30%
Effect on HSA fluorescence signal at 340 nm [3]: significant decrease
Kd [3, 10]: 8.32 µM
LogKSV (Stern-Volmer quenching constant) [3]: 4.99 ± 0.01
Concentration of warfarin in the filtrate (HSA Site I (warfarin)): significantly increased
Structure (SMILES): CC(C(=O)c1ccc(O)cc1O)c1ccc(O)cc1 (stereo not shown) [DESMA, 1-(2,4-dihydroxyphenyl)-2-(4-hydroxyphenyl)-1-propanone]
Plasma concentrations ([4]; after dietary intake or high consumption of soy products, low nanomolar upward): ≤ 0.5 µM
Peak plasma concentration ([4]; after ingestion of 60 g baked soybean powder): 300−500 nM

inhibition at 20 μM (CYP2C19 [1]): < 30%
Structure (SMILES): O=C(O)CNC(=O)c1ccccc1 [HIPA, hippuric acid]
Inhibition of CYP2C9 (CYP2C9 [6]): inhibited only at very high concentrations (e.g., 100 μM)
Inhibition of CYP3A4-catalyzed testosterone hydroxylation (CYP3A4 [5]; 1-100 μM range): did not show relevant inhibition
Inhibition of CYP3A4-catalyzed testosterone hydroxylation (CYP3A4 [5]): considerable inhibition only above 50 μM concentrations
logK of complex with HSA (HSA): 3.8

inhibition at 20 μM (CYP3A4 [8]): ~40%
Structure (SMILES): Oc1cc(O)cc(O)c1 [PHLO, phloroglucinol]
Peak plasma concentration ([4]; healthy human volunteers, oral 160 mg PHLO): approximately 5 μM

Structure (SMILES): Oc1cccc(O)c1O [PYR, pyrogallol]
Peak plasma concentration ([4]; healthy humans, black tea extract 2650 mg, plasma not treated with sulfatase): approximately 7 μM
Effect on HSA fluorescence signal at 340 nm [3]: significant decrease
Kd ([3]; LogK (binding constant of albumin-ligand complex)): 20.9 µM
LogKSV (Stern-Volmer quenching constant) [3]: 4.64 ± 0.03
Concentration of warfarin in the filtrate (HSA Site I (warfarin)): significantly increased
logK of PYR-HSA complex (HSA): 4.5

inhibition at 20 μM (CYP3A4 [8]): ~65%
Structure (SMILES): Oc1cccc(O)c1 [RES, resorcinol]

Structure (SMILES): O=c1c(-c2ccc(O)cc2)coc2cc(O)ccc12 [daidzein]
Inhibition of CYP2C9-catalyzed hydroxylation of diclofenac (CYP2C9 [6]): inhibits
